From PubChem BioAssay (NCI)
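Five concentrations, 48 hours, 96-well plates. Definition used: TGI = concentration required for complete inhibition of growth.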

Columns and labels:
Experiment in all cases: DTP human tumour cell line panel, 48 h
CCRF-CEM leukemia = tested on: CCRF-CEM leukemia
HCT-15 colon = tested on: HCT-15 colon
HOP-92 NSCLC = tested on: HOP-92 NSCLC
K-562 leukemia = tested on: K-562 leukemia
LOX IMVI melanoma = tested on: LOX IMVI melanoma
M14 melanoma = tested on: M14 melanoma
MALME-3M melanoma = tested on: MALME-3M melanoma
MDA-MB-231 breast = tested on: MDA-MB-231 breast
NCI-H226 lung = tested on: NCI-H226 lung
NCI-H460 lung = tested on: NCI-H460 lung
OVCAR-4 ovarian = tested on: OVCAR-4 ovarian
OVCAR-5 ovarian = tested on: OVCAR-5 ovarian
RXF 393 renal = tested on: RXF 393 renal
SK-MEL-5 melanoma = tested on: SK-MEL-5 melanoma
SK-OV-3 ovarian = tested on: SK-OV-3 ovarian
SN12C renal = tested on: SN12C renal
SW-620 colon = tested on: SW-620 colon
TK-10 renal = tested on: TK-10 renal
UACC-257 melanoma = tested on: UACC-257 melanoma
IGROV1 ovarian = tested on: IGROV1 ovarian

Compound	TGI (CCRF-CEM leukemia) [µM]	TGI (HCT-15 colon) [µM]	TGI (HOP-92 NSCLC) [µM]	TGI (K-562 leukemia) [µM]	TGI (LOX IMVI melanoma) [µM]	TGI (M14 melanoma) [µM]	TGI (MALME-3M melanoma) [µM]	TGI (MDA-MB-231 breast) [µM]	TGI (NCI-H226 lung) [µM]	TGI (NCI-H460 lung) [µM]	TGI (OVCAR-4 ovarian) [µM]	TGI (OVCAR-5 ovarian) [µM]	TGI (RXF 393 renal) [µM]	TGI (SK-MEL-5 melanoma) [µM]	TGI (SK-OV-3 ovarian) [µM]	TGI (SN12C renal) [µM]	TGI (SW-620 colon) [µM]	TGI (TK-10 renal) [µM]	TGI (UACC-257 melanoma) [µM]	TGI (IGROV1 ovarian) [µM]
CCCC/C=C/C/C=C/CCCCCCCCC(=O)OCC1CCCN2CCCCC12 (stereo unspecified)	> 100	> 100	> 100	> 100	> 100	> 100	> 100	> 100	> 100	> 100	> 100	> 100	> 100	> 100	> 100	> 100	> 100	> 100	> 100	
CN1CCN(c2ccc3[nH]c(-c4cc(O)c5c(nc(CO)n5C)c4O)nc3n2)CC1	58.6	> 100	> 100	> 100	37.9	> 100	65.4	63.1	96.5	> 100	> 100	> 100	> 100		> 100	36.8	> 100		> 100	> 100
COc1ccccc1N(CN1C(=O)CCC1C(=O)O)C(C)=O (stereo unspecified)		> 100	> 100	> 100	> 100	> 100	> 100	> 100	> 100	> 100	> 100	> 100	> 100	> 100	> 100	> 100	> 100	> 100	> 100	> 100
O=c1cc(N2CCNCC2)nc2ccccn12	> 100	> 100	> 100	> 100	> 100	> 100	> 100	> 100	> 100			> 100	> 100	> 100	> 100	> 100	> 100	> 100	> 100	> 100
O=C1c2[nH]c3ccc(Br)cc3c2CCN1Cc1ccc(Cl)cc1	> 100	18.1	33.4	> 100	25.9	28.5	33.7	28.7			34.3	26.2	36.4	23		39.9	34.8	27.7	30	35.5
CN(C)/N=C(/CC(O)(C(F)(F)F)C(F)(F)F)c1ccc([N+](=O)[O-])cc1	> 100	> 100	> 100	> 100	> 100	> 100	> 100	> 100	> 100	> 100	> 100	> 100	> 100	> 100	> 100	> 100	> 100		> 100	> 100
CN(C)c1ccc(/C=C2/NC(=S)NC2=O)cc1	80.8	> 100	> 100		> 100	> 100	> 100	> 100	> 100		> 100	> 100	> 100	> 100	> 100	> 100	> 100	> 100	> 100	> 100
N#CC12CNCC1CN=N2 (stereo unspecified)	> 100	> 100	> 100	> 100	> 100		> 100	> 100	> 100	> 100	> 100	> 100	> 100	> 100		> 100	> 100	> 100	> 100	> 100
CC(C)(C)C(=O)OCOP(=O)(OCOC(=O)C(C)(C)C)OCC1OC(n2ccc(=O)[nH]c2=O)C(N=[N+]=[N-])C1O (stereo unspecified)	13.3	10.7	5	> 100	3.44	14.3	1.57	21.1	22	12.1	14	16.1	7.07	16.8		22	18.2	22.3	18.1	17.5
N#CC1C(=O)N(c2ccccc2)NC12OC(=O)c1ccncc12 (stereo unspecified)	> 20	> 20	> 20	> 20	> 20	> 20	> 20	> 20	> 20	> 20	> 20	> 20	> 20	> 20	> 20	> 20	> 20		> 20	> 20
CC(C)(C)OC(=O)CN1C(=O)CC1CC(=O)c1ccccc1 (stereo unspecified)		37.5	> 100	34.2	31.3	30.4	31.9	31.1	43.5	77.1	> 100	36.8	43.5	33.1		51.1	31.6	93.2	35.2	32.2
O=[N+]([O-])c1ccc2c(c1)S(=O)(=O)N1Cc3ccccc3CCN21	> 100	> 100	> 100	> 100	> 100	> 100	> 100	> 100	> 100	> 100	> 100	> 100	> 100	> 100		> 100	> 100	> 100	> 100	> 100
